In patent publication US8652518B2, “Compositions and methods for the prevention and treatment of diseases or conditions associated with oxidative stress, inflammation, and metabolic dysregulation” (priority 2012, dated 2014):

Experiments:
[1] = tested on: thyroid nodule localized to the right side of the thyroid gland; experiment: Case 2: subject with thyroid nodule given the preferred embodiment; format: in vivo; conditions: increasing doses, before the preferred embodiment
Excerpt: […]

[2] = tested on: atrophic or neovascular AMD; conditions: group with the highest dietary intake of either carotenoid; cited from earlier work
sarcoma S-180 cells = conditions: high dose; cited from earlier work
VEGF = conditions: mice with the highest survival rates; cited from earlier work
bFGF = conditions: mice with the highest survival rates; cited from earlier work
MMP2 = conditions: mice with the highest survival rates; cited from earlier work

With N[C@@H](Cc1cc(I)c(Oc2cc(I)c(O)c(I)c2)c(I)c1)C(=O)O [levothyroxine sodium] the “effect on growth of the thyroid nodule” value [1] was “did not seem to inhibit the growth of the nodule”.

In the case of CC1=C[C@H](O)CC(C)(C)[C@H]1/C=C/C(C)=C/C=C/C(C)=C/C=C/C=C(C)/C=C/C=C(C)/C=C/C1=C(C)C[C@@H](O)CC1(C)C [lutein], the “reduction in the risk of developing atrophic or neovascular AMD” value [2] is listed as “forty”.

In the case of O=C1O[C@H]([C@@H](O)CO)C(O)=C1O [vitamin C, ascorbic acid], the “increase of survival rate as compared to control models” value (sarcoma S-180 cells) is listed as 20%, the “inhibition of expression of VEGF gene” value (VEGF) is listed as 7 times and the “inhibition of expression of bFGF gene” value (bFGF) is listed as 0.3 times. For the same compound, the “inhibition of expression of MMP2 gene” value (MMP2) was 4 times.

In the case of CC1=C(/C=C/C(C)=C/C=C/C(C)=C/C=C/C=C(C)/C=C/C=C(C)/C=C/C2=C(C)C[C@@H](O)CC2(C)C)C(C)(C)C[C@H](O)C1 [zeaxanthin], the “reduction in the risk of developing atrophic or neovascular AMD” value [2] is given as “forty”.
